Like-named read-outs stand apart in the source and are kept apart here.
Target: T1, SIRT1 (Homo sapiens, UniProt Q96EB6)
T1 sequence (Q96EB6 1-747): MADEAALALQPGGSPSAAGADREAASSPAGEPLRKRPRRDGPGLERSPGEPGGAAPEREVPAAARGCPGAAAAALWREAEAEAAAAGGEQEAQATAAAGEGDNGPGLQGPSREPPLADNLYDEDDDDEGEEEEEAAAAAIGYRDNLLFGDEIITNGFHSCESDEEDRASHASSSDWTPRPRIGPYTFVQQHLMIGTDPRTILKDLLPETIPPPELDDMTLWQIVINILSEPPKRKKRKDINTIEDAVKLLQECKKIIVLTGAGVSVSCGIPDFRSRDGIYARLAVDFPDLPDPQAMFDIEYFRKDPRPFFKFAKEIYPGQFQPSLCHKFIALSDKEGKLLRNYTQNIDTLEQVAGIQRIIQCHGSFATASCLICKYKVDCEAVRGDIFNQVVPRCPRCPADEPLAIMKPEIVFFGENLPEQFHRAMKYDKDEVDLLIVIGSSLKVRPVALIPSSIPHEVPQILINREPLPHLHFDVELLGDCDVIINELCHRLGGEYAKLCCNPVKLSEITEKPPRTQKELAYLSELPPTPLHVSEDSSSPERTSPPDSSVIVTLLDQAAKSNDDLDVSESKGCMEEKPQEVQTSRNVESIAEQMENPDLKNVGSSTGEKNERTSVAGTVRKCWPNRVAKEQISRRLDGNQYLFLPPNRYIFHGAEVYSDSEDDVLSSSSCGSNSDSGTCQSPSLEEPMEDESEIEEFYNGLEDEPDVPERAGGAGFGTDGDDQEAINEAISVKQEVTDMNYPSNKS
Assay: TAMRA based mass spectrometry assay of SIRT1 activity
Format: biochemical
Details: for Emax: read-out: TAMRA % Fold Act
Outline: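 Deacetylation of a biotinylated, TAMRA-tagged p53-based peptide (0.5 μM) by 10 nM His-tagged SIRT1 with 120 μM βNAD+, 25 °C for 25 min, pH 8 Tris-acetate buffer, across a compound concentration range. Quenched by formic acid and read by mass spec as product peptide or OAADPR; activity relative to DMSO reactions, nicotinamide defining maximal inhibition.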

[1] = TAMRA assay, concentration giving 150% activation of SIRT1
[2] = TAMRA assay, percent maximum fold activation
[3] = TAMRA peptide substrate, concentration giving 150% activation of SIRT1
[4] = TAMRA peptide substrate, percent maximum fold activation
[5] = concentration of test compound giving 150% activation of SIRT1, TAMRA peptide substrate
[6] = percent maximum fold activation of SIRT1, TAMRA peptide substrate

Row | TAMRA EC1.5 (μM) [1] | Emax [2] | SMILES | also measured
1 | A (EC1.5<1 μM) | ≥ 350% | Cc1ccc(NC(=O)c2c(C)nc3ccc(-c4ccccc4Br)nn23)nn1 [Compound 764] | 
2 | A (EC1.5<1 μM) | ≥ 350% | Cc1nc2c(C)cc(-c3ccccc3C(F)(F)F)nn2c1C(=O)Nc1ccnc(C2CC2)n1 [Compound 732] | 
3 |  |  | Cc1cc(NC(=O)c2cnc3ccc(-c4ccccc4C(F)(F)F)nn23)cc(OC[C@H](O)CO)n1 [Compound 557] | TAMRA EC1.5 [3]: A (EC1.5<1 μM); Emax [4]: ≥ 350%
4 | B (EC1.5 1-25 μM) | ≥ 350% | Cc1nc(C(=O)Nc2cnc3ccc(-c4ccccc4C#N)nn23)cs1 [Compound 333] | 
5 | A (EC1.5<1 μM) | ≥ 350% | Cc1nn2ccc(-c3ccccc3C(F)(F)F)nc2c1C(=O)Nc1ccncc1F [Compound 789] | 
6 | B (EC1.5 1-25 μM) | < 350% | N#Cc1ccccc1-c1ccc2ncc(C(=O)Nc3cnccn3)n2n1 [Compound 205] | 
7 | B (EC1.5 1-25 μM) | ≥ 350% | N#Cc1ccccc1-c1ccc2ncc(C(=O)Nc3ccnc(N4CCC4)c3)n2n1 [Compound 201] | 
8 | B (EC1.5 1-25 μM) | < 350% | Cc1cc(NC(=O)c2c(O)nc3ccc(-c4ccccc4C(F)(F)F)nn23)ccn1 [Compound 366] | 
9 |  |  | O=C(NCc1cccnc1)c1cnc2ccc(-c3cccc(C(F)(F)F)c3)nn12 [Compound 1] | TAMRA EC1.5 (μM) [5]: B (EC1.5 1-25 μM); Emax [6]: < 350%
10 | A (EC1.5<1 μM) | ≥ 350% | O=C(Nc1cnn2ccc(-c3ccccc3C(F)(F)F)nc12)c1cccc(N2CCOCC2)n1 [Compound 256] | 
11 | C (EC1.5>25 μM) | < 350% | Cc1nc2ccc(-c3ccccc3Cl)nn2c1NC(=O)c1cscn1 [Compound 350] | 
12 | A (EC1.5<1 μM) | ≥ 350% | Cc1nc(NC(=O)c2c(C)nn3ccc(-c4ccccc4C(F)(F)F)nc23)sc1C [Compound 651] | 
13 | C (EC1.5>25 μM) | < 350% | O=C(Nc1ncccc1N1CCOCC1)c1cnc2ccc(-c3ccccc3C(F)(F)F)nn12 [Compound 211] | 
14 |  |  | O=C(Nc1cccc(CN2CCOCC2)n1)c1cnc2ccc(-c3ccccc3F)nn12 [Compound 135] | TAMRA EC1.5 (μM) [5]: A (EC1.5<1 μM); Emax [6]: ≥ 350%
15 | A (EC1.5<1 μM) | ≥ 350% | CCOc1ccc(NC(=O)c2c(C)nc3ccc(-c4ccccc4C(F)(F)F)nn23)nn1 [Compound 666] | 
16 | A (EC1.5<1 μM) | ≥ 350% | O=C(Nc1cnc2ccc(-c3ccccc3F)nn12)c1cccc(N2CCOCC2)n1 [Compound 301] | 
17 |  |  | Cc1cc(C)nc(NC(=O)c2c(C)nc3c(C)cc(-c4ccccc4OC(F)(F)F)nn23)c1 [Compound 493] | TAMRA EC1.5 [3]: A (EC1.5<1 μM); Emax [4]: ≥ 350%
18 | A (EC1.5<1 μM) |  | O=C(Nc1cnc2ccc(-c3ccccc3C(F)(F)F)nn12)c1cccc(OCC(O)CO)n1 (stereo not drawn) [Compound 235] | TAMRA % Fold Act [2]: A (Fold activation ≥350%)
19 | A (EC1.5<1 μM) | ≥ 350% | Cc1cc(NC(=O)c2cnc3c(C)c(C)c(-c4ccccc4C(F)(F)F)nn23)cc(C)n1 [Compound 361] | 
20 | A (EC1.5<1 μM) | ≥ 350% | Cc1cc(C)nc(NC(=O)c2cnc3ccc(-c4ccccc4OC[C@H](O)CO)nn23)c1 [Compound 792] | 
21 | A (EC1.5<1 μM) | ≥ 350% | Cc1cc(C)nc(NC(=O)c2cnc3ccc(-c4ccccc4OCC(O)CO)nn23)c1 (stereo not drawn) [Compound 371] | 
22 | A (EC1.5<1 μM) | ≥ 350% | CCOc1nccc(NC(=O)c2c(C)nn3ccc(-c4ccccc4C(F)(F)F)nc23)n1 [Compound 786] | 
23 |  |  | Cc1cc(-c2ccccc2C(F)(F)F)nn2c(C(=O)Nc3ccncc3)cnc12 [Compound 193, 8-methyl-N-(pyridin-4-yl)-6-(2-(trifluoromethyl)phenyl)imidazo[1,2-b]pyridazine-3-carboxamide] | TAMRA EC1.5 (μM) [5]: A (EC1.5<1 μM); Emax [6]: ≥ 350%
24 | A (EC1.5<1 μM) | ≥ 350% | CC1(COc2cccc(NC(=O)c3cnc4ccc(-c5ccccc5C(F)(F)F)nn34)n2)COC1 [Compound 295] | 

Row | TAMRA EC1.5 (μM) [1] | Emax [2] | SMILES | also measured
25 | B (EC1.5 1-25 μM) | < 350% | O=C(Nc1ccccn1)c1c(O)nc2ccc(-c3ccccc3C(F)(F)F)nn12 [Compound 324] | 
26 | A (EC1.5<1 μM) | ≥ 350% | Cc1ccc(NC(=O)c2c(C)nc3ccc(-c4ccccc4C(F)(F)F)nn23)nn1 [Compound 664] | 
27 | A (EC1.5<1 μM) | ≥ 350% | O=C(Nc1cnn2ccc(-c3ccccc3OC(F)(F)F)nc12)c1cccc(-n2cnnc2)n1 [Compound 769] | 
28 |  |  | O=C(Nc1ccccn1)c1cnc2ccc(-c3ccc(F)c(F)c3F)nn12 [Compound 129] | TAMRA EC1.5 (μM) [5]: C (EC1.5>25 μM); Emax [6]: < 350%
29 | A (EC1.5<1 μM) | ≥ 350% | O=C(Nc1ccccn1)c1cnn2ccc(-c3ccccc3C(F)(F)F)nc12 [Compound 265, N-(pyridin-2-yl)-5-(2-(trifluoromethyl)phenyl)pyrazolo[1,5-a]pyrimidine-3-carboxamide] | 
30 |  |  | Cc1nc2c(C)cc(-c3ccccc3C(F)(F)F)nn2c1C(=O)Nc1cccc(N2CC3(CCO3)C2)n1 [Compound 544] | TAMRA EC1.5 [3]: A (EC1.5<1 μM); Emax [4]: ≥ 350%
31 | A (EC1.5<1 μM) | < 350% | Cc1nc2ccc(-c3ccccc3Cl)nn2c1NC(=O)c1cccc(N2CCC2)n1 [Compound 356] | 
32 | A (EC1.5<1 μM) | ≥ 350% | Cc1cnc(NC(=O)c2cnn3ccc(-c4ccccc4C(F)(F)F)nc23)cn1 [Compound 723, N-(5-methylpyrazin-2-yl)-5-(2-(trifluoromethyl)phenyl)pyrazolo[1,5-a]pyrimidine-3-carboxamide] | 
33 | A (EC1.5<1 μM) | ≥ 350% | Cc1nccc(C(=O)Nc2cnn3ccc(-c4ccccc4OC(F)(F)F)nc23)n1 [Compound 726] | 
34 | A (EC1.5<1 μM) | ≥ 350% | Cc1cc(NC(=O)c2c(C)nn3ccc(-c4ccccc4C(F)(F)F)nc23)nc(C)n1 [Compound 787] | 
35 |  |  | Cc1nc2ccc(-c3ccccc3C(F)(F)F)nn2c1C(=O)Nc1cccc(N2CCCC2)n1 [Compound 70] | TAMRA EC1.5 (μM) [5]: A (EC1.5<1 μM); Emax [6]: ≥ 350%
36 |  |  | Cc1cc(C)nc(NC(=O)c2c(C)nc3c(C)cc(-c4ccccc4C(F)(F)F)nn23)c1 [Compound 429] | TAMRA EC1.5 [3]: A (EC1.5<1 μM); Emax [4]: ≥ 350%
37 | A (EC1.5<1 μM) | ≥ 350% | Cc1nc2ccc(-c3ccccc3C(F)(F)F)nn2c1NC(=O)c1cccc(N2CCOCC2)n1 [Compound 382] | 
38 | B (EC1.5 1-25 μM) | < 350% | Cc1ccc(C(=O)Nc2cnc3ccc(-c4ccccc4C(F)(F)F)nn23)c(C)n1 [Compound 394] | 
39 | C (EC1.5>25 μM) | < 350% | Cc1ccc(NC(=O)c2cnn3ccc(-c4ccccc4OC(F)(F)F)nc23)nc1 [Compound 608] | 
40 | A (EC1.5<1 μM) | ≥ 350% | O=C(Nc1cnn2ccc(-c3ccccc3OC(F)(F)F)nc12)c1nc2c(s1)CCCC2 [Compound 780] | 
41 |  |  | CN(C)[C@H]1CCN(c2ccc3ncc(C(=O)Nc4cccc(N5CCOCC5)n4)n3n2)C1 [Compound 510] | TAMRA EC1.5 [3]: B (EC1.5 1-25 μM); Emax [4]: < 350%
42 | A (EC1.5<1 μM) | < 350% | Cc1nc2ccc(-c3ccccc3OC[C@H](O)CO)nn2c1C(=O)Nc1ccncn1 [Compound 774] | 
43 |  |  | Cc1nc2ccc(-c3ccccc3C(F)(F)F)nn2c1NC(=O)c1cscn1 [Compound 404] | TAMRA EC1.5 [3]: B (EC1.5 1-25 μM); Emax [4]: < 350%
44 | C (EC1.5>25 μM) | < 350% | Cc1cnc(NC(=O)c2cnn3ccc(-c4ccccc4OC(F)(F)F)nc23)c(C)n1 [Compound 689] | 
45 |  |  | Cc1cc(-c2ccccc2C(F)(F)F)nn2c(NC(=O)c3cscn3)cnc12 [Compound 411] | TAMRA EC1.5 [3]: A (EC1.5<1 μM); Emax [4]: ≥ 350%
46 | A (EC1.5<1 μM) | ≥ 350% | O=C(Nc1cnc2ccc(-c3ccccc3OC(F)(F)F)nn12)c1nccs1 [Compound 319] | 
47 | A (EC1.5<1 μM) | ≥ 350% | COc1cccc(C(=O)Nc2cnn3ccc(-c4ccccc4OC(F)(F)F)nc23)n1 [Compound 751] | 
48 |  |  | O=C(Nc1ccncc1F)c1cnc2ccc(-c3ccccc3C(F)(F)F)nn12 [Compound 100] | TAMRA EC1.5 (μM) [5]: A (EC1.5<1 μM); Emax [6]: ≥ 350%

Reference: patent US9957271B2, “Substituted bicyclic aza-heterocycles and analogues as sirtuin modulators” (GlaxoSmithKline, LLC, priority 2012, dated 2018)
